# In the supplement of paper PMC13380429:
# How the values were obtained:
# Conditions in all cases: 72 h
# Caco-2 [1] = test: cell viability relative to DMSO; higher = less toxic
# Calu-3 [2] = test: as above
# HepG2 [3] = test: as above
# U2OS [4] = test: as above
# Vero E6 [5] = test: as above
# Caco-2 [6] = test: relative viability EC50 (midpoint between 100% and the lowest measured viability); higher = less toxic
# Calu-3 [7] = test: as above
# HepG2 [8] = test: as above
# U2OS [9] = test: as above
# Vero E6 [10] = test: as above
# Caco-2 [11] = test: drug sensitivity score (DSS) for viability; higher = more toxic; extreme values may be limits of the assay
# Calu-3 [12] = test: as above
# HepG2 [13] = test: as above
# U2OS [14] = test: as above
# Vero E6 [15] = test: as above
Structure (SMILES),cell viability (Caco-2 [1]; 1 nM) [%],cell viability (Caco-2 [1]; 10 nM) [%],cell viability (Caco-2 [1]; 100 nM) [%],cell viability (Caco-2 [1]; 1000 nM) [%],cell viability (Caco-2 [1]; 10000 nM) [%],cell viability (Calu-3 [2]; 1 nM) [%],cell viability (Calu-3 [2]; 10 nM) [%],cell viability (Calu-3 [2]; 100 nM) [%],cell viability (Calu-3 [2]; 1000 nM) [%],cell viability (Calu-3 [2]; 10000 nM) [%],cell viability (HepG2 [3]; 1 nM) [%],cell viability (HepG2 [3]; 10 nM) [%],cell viability (HepG2 [3]; 100 nM) [%],cell viability (HepG2 [3]; 1000 nM) [%],cell viability (HepG2 [3]; 10000 nM) [%],cell viability (U2OS [4]; 1 nM) [%],cell viability (U2OS [4]; 10 nM) [%],cell viability (U2OS [4]; 100 nM) [%],cell viability (U2OS [4]; 1000 nM) [%],cell viability (U2OS [4]; 10000 nM) [%],cell viability (Vero E6 [5]; 1 nM) [%],cell viability (Vero E6 [5]; 10 nM) [%],cell viability (Vero E6 [5]; 100 nM) [%],cell viability (Vero E6 [5]; 1000 nM) [%],cell viability (Vero E6 [5]; 10000 nM) [%],relative viability EC50 (Caco-2 [6]) [µM],relative viability EC50 (Calu-3 [7]) [µM],relative viability EC50 (HepG2 [8]) [µM],relative viability EC50 (U2OS [9]) [µM],relative viability EC50 (Vero E6 [10]) [µM],drug sensitivity score (Caco-2 [11]),drug sensitivity score (Calu-3 [12]),drug sensitivity score (HepG2 [13]),drug sensitivity score (U2OS [14]),drug sensitivity score (Vero E6 [15])
CC(C)N(CC[C@H](c1ccccc1)c1cc(CO)ccc1O)C(C)C [5-hydroxymethyl-tolterodine],89,87.9,108,102,99.6,104,89.3,96.7,98.6,99.3,104,91.6,102,96.5,112,101,99.1,105,91.8,95.9,95.7,96.2,96.6,98.2,101,> 10,> 10,> 10,> 10,> 10,0,0,0,0,0
COc1cc(N2CCC(N)CC2)ccc1Nc1ncc(Cl)c(-c2c[nH]c3ccccc23)n1 [AZD3463],103,98.2,99.6,64.3,34.9,97.2,88.9,95.1,81.8,9.4,102,102,78.1,41.6,12.7,93.5,101,95.1,69.2,2.6,104,100,102,87.1,4.5,0.923,1.73,0.402,1.39,2.08,8,8,13.6,9.6,7.4
O=C(O)C[C@H]1CC[C@H](c2ccc(NC(=O)c3nnc(Nc4ccc(F)c(F)c4)o3)cc2)CC1 [AZD3988],99,104,96.6,100,87.9,104,104,97.6,108,100,110,105,103,93,102,99.7,98.8,97.2,103,94.7,97.9,97.4,95.2,95.3,101,> 10,> 10,> 10,> 10,> 10,0,0,0,0,0
N[C@@H](C[C@@H](F)C(=O)O)C(=O)O [BAY-85-8050],91.1,105,97.8,100,110,90.2,94.7,90.6,86.2,98.5,96.2,98.7,109,95.6,99.7,93.5,99.6,96.7,100,106,93.6,93.8,102,95.7,100,> 10,> 10,> 10,> 10,> 10,0,0,0,0,0
COC(=O)c1ccc2c(c1)nc(NC(=O)c1ccccc1)n2CCCc1ccccc1 [BRD4770],98,103,94.1,91.9,80,107,96.6,97.4,93.6,95.5,109,97.2,99.9,94.3,77,97.9,98.6,98.2,99.3,88.3,103,97.4,98,96.6,90.1,> 10,> 10,> 10,> 10,> 10,1,0,1.6,0.1,0
CC1(C)[C@@H](OC(=O)CCC(=O)O)CC[C@]2(C)[C@H]3C(=O)C=C4[C@@H]5C[C@@](C)(C(=O)O)CC[C@]5(C)CC[C@@]4(C)[C@]3(C)CC[C@@H]12 [CARBENOXOLONE SODIUM],94.4,96.6,92.3,99.1,99,88.9,102,92.8,106,96,97.8,98,113,96.6,91.2,107,99.8,101,103,104,100,49.3,101,59.6,99.2,> 10,> 10,> 10,> 10,> 10,0,0,0,0,0
O=C(O)[C@H]1CN(CCCP(=O)(O)O)CCN1 [CPP],97,101,103,101,94.5,102,104,92.6,89.4,90.5,96.6,112,98.6,103,104,103,106,101,101,99.8,99.2,103,99.8,102,102,> 10,> 10,> 10,> 10,> 10,0,0.2,0,0,0
